Test system: SIRT 1
Assay: Western blot analysis of the expression of SIRT 1 in HeLa cells
Assay type: cell-based, Human
Details: for % 3 h increase (SIRT 1 expression compared to control) / % 6 h increase (SIRT 1 expression compared to control) / % 24 h increase (SIRT 1 expression compared to control): HeLa cells; for increase of SIRT 1 expression relative to the other groups: Table 1, especially with respect to resveratrol, reference standard
Procedure: The synergistic effects of co-administration of two substances on SIRT 1 stimulation, determined as a greater, statistically significant effect than the sum of the effects of the two substances individually administered, were evaluated in cell cultures by repeating the experiment at least 8 times for each single combination, either after a stimulation time of 3, 6 and 24 hours (more than 300 total trials), as described in the following detailed description.
Human Cervical Carcinoma cells (HeLa) were cultured in DMEM supplemented with 10% (v/v) fetal bovine serum, 1% antibiotics (penicillin and streptomycin) and 1% L-glutamine at 37° C. in a humidified air atmosphere with 5% (v/v) CO2.
The cells were grown to a confluence of 80%, were then trypsinized, counted with a Burker chamber and plated (100,000 cells /well). The day of the experiment, the cells were treated with the substances at the different concentrations and left in incubation for 3, 6 and 24 hours. The substances were solubilized in DMSO, used at concentrations not toxic for cells (v/v<0.5%).
At the end of the incubation periods, the cells were washed with PBS (pH 7.4) and collected in a 1.5 ml microtube with 0.130 ml of lysis buffer (RIPA buffer) containing a protease inhibitor cocktail, a phosphatase inhibitor cocktail, PMSF, sodium orthovanadate and sodium pyrophosphate.
They were lysed by three freezing-thawing cycles and then the supernatant were recovered.
A part of the lysate was used to quantified the protein content with the spectrophotometer (Thermo Scientific Multiskan FC, Thermo Scientific), using a commercial kit based on the Bradford assay. The final concentrations are expressed in μg/μl.
The cell lysates (25 μg/μl) were combined with the appropriate amount of 1× SDS sample buffer (0.5 M Tris-HCl pH 6.8, 20% SDS, 10% [vol/vol] glycerol, 5% [vol/vol] β-mercaptoethanol, 0.2% bromophenol blue), heated at 95° C. for 5 min, separated by SDS-PAGE and then transferred to polyvinylidene difluoride membranes (PVDF).
For the electrophoretic separation was used a polyacrylamide gel, composed of two parts, a lower one called “Running gel”, containing acrylamide (acrylic acid amide) to 12% (acrylamide/bis-acrylamide 30%), in which occurs the separation of the proteins, and an upper one, called loading gel or “Stacking gel”, containing acrylamide to 10%, where were built the wells for sample loading.
The electrophoretic run was performed by passing a current at 200V for about 1 hour, or until when the front has not reached the bottom of the gel.
Once running, the proteins were transferred from the gel to a […] membrane (PVDF).
The transfer was performed by passing a voltage of 100V for 1 hour.
The membranes were blocked with 5% (wt/vol) nonfat dry milk in Tris-buffered saline with Tween buffer (T-TBS) (20 mmol/1 Tris-Hcl, pH 7.6, 0.138 mol/l NaCl, and 0.1% Tween 20) for 1 hour under stirring and at room temperature.
The expression of SIRT 1 was analyzed incubating the membranes in the presence of specific primary antibodies and, subsequently, of secondary peroxidase-conjugated antibodies, suitable diluted in 5% BSA in T-TBS. Primary Antibodies were used overnight at 4° C. at the following conditions: anti-SIRT 1, rabbit (1:1000) and anti-β-actine, mouse (1:1000). Secondary antibodies were instead used at this dilution: goat anti-rabbit (1:10000) for SIRT 1 and for β-actin.
During this phase the primary antibody binds to species-specific secondary antibody conjugated to a peroxidase enzyme that will bind, in the next step, a specific substrate (luminol) for the reaction of chemiluminescence.
Later, were performed a series of washes with TBS-Tween under stirring, in order to remove all the unbound secondary antibody.
Bound antibodies were visualized using Chemiluminescence Luminata Crescendo Western HRP Substrate and bands were detected and analyzed by the Kodak Image Station 440CF (Eastman Kodak, Rochester, N.Y., USA).

| Molecule | % 3 h increase (SIRT 1 expression compared to control) (5 μM) [%] | % 6 h increase (SIRT 1 expression compared to control) (5 μM) [%] | % 24 h increase (SIRT 1 expression compared to control) (5 μM) [%] | % 3 h increase (SIRT 1 expression compared to control) (10 μM) [%] | % 6 h increase (SIRT 1 expression compared to control) (10 μM) [%] | % 24 h increase (SIRT 1 expression compared to control) (10 μM) [%] | increase of SIRT 1 expression relative to the other groups | % 3 h increase (SIRT 1 expression compared to control) (20 μM) [%] | % 6 h increase (SIRT 1 expression compared to control) (20 μM) [%] | % 24 h increase (SIRT 1 expression compared to control) (20 μM) [%] | % 3 h increase (SIRT 1 expression compared to control) (25 μM) [%] | % 6 h increase (SIRT 1 expression compared to control) (25 μM) [%] | % 24 h increase (SIRT 1 expression compared to control) (25 μM) [%] | % 3 h increase (SIRT 1 expression compared to control) (50 μM) [%] | % 6 h increase (SIRT 1 expression compared to control) (50 μM) [%] | % 24 h increase (SIRT 1 expression compared to control) (50 μM) [%] |
| --- | --- | --- | --- | --- | --- | --- | --- | --- | --- | --- | --- | --- | --- | --- | --- | --- |
| COc1ccc2cc3[n+](cc2c1OC)CCc1cc2c(cc1-3)OCO2 [Berberine, Berberine Chloride Hydrate] | 63 | 65 | 75 | 65 | 64 | 75 | greater increase than the other groups |  |  |  |  |  |  |  |  |  |
| OCCc1ccc(O)cc1 [Tyrosol] |  |  |  | 53 | 62 | 68 | greater increase than the other groups | 76 | 93 | 101 |  |  |  |  |  |  |
| COc1cc(/C=C/C(=O)O)ccc1O [Ferulic Acid] |  |  |  |  |  |  | greater increase than the other groups |  |  |  | 43 | 44 | 66 | 57 | 58 | 75 |
| Oc1ccc(C=Cc2cc(O)cc(O)c2)cc1 [Resveratrol, reference compound] | 46 | 47 | 68 | 47 | 48 | 69 |  |  |  |  |  |  |  |  |  |  |
| O.O.O=c1c(O)c(-c2ccc(O)c(O)c2)oc2cc(O)cc(O)c12 [Quercetin, Quercetin Dihydrate] | 21 | 22 | 29 | 27 | 27 | 54 |  |  |  |  |  |  |  |  |  |  |
| (+)-Catechin | 44 | 44 | 46 | 54 | 54 | 57 | greater increase than the other groups |  |  |  |  |  |  |  |  |  |

Reference: patent US20170304280A1, “SYNERGISTIC COMBINATIONS STIMULATING THE EXPRESSION OF SIRTUIN 1” (priority 2014, published 2017)
